The values below are quoted from earlier work in patent US8222453B2, “Benzamide factor VIIa inhibitors useful as anticoagulants” (Bristol-Myers Squibb Company, priority 2006, dated 2012).

In data set [1] the test system is systemic thrombin generation. The following applies: patients undergoing coronary angioplasty.
In the next data set the test system is deep vein thrombosis. The following applies: patients undergoing total knee replacement.

“recombinant nematode anticoagulant protein c2 [rNAPc2]”: the systemic thrombin generation entry in data set [1] is listed as “reduces systemic thrombin generation”. Besides, in the data set on deep vein thrombosis, the deep vein thrombosis result is reported as “prevents deep vein thrombosis”.
